The target in one assay is HER2YVMA (Homo sapiens, UniProt P04626, INS775YVMA). The assay is described as follows: HER2 signaling (pHER2) in Ba/F3-HER2YVMA cells. In kind it is cell-based. The following applies: read-out: Ba/F3 YVMA pHER2 EC50. Further details: expressed in transfected cells; host or cells: HEK293 (pool), Ba/F3 (clones), BEAS2B (clones); lentiviral vector pCDH-CMV-MCS-EF1-Neo. As to the method:
Cell culture, plasmid cloning, and lentiviral transduction were carried out according to standard procedures. The Human HER2 cDNA construct in pCMV6-Entry for the HER2 wildtype (WT) expression was obtained from Origene. The HER2 cDNA including the 12-nucleotide insertion corresponding to YVMA insertion (HER2YVMA) was codon optimized, synthesized and cloned by GenScript (Piscataway, NJ) in pcDNA3.1. The lentiviral constructs expressing HER2YVMA and HER2 WT were sub-cloned using PCR at System Biosciences (SBI, Mountainview, CA) into lentiviral vectors pCDH-CMV-MCS-EF1-Neo and lentiviral particles were generated.
(§1) Engineered lines expressing HER2YVMA and HER2 WT were prepared in HEK293 (human embryonic kidney cells), Ba/F3 (Interleukin 3 (IL3)-dependent murine pro B cell line), and BEAS2B (primary immortalized human bronchial epithelial cell line). Ba/F3, BEAS2B, and HEK293 cells were obtained from the American Type Culture Collection (ATCC, Manassas, VA). Parental Ba/F3 cells were grown in suspension in complete RPMI 1640 supplemented with 10% FBS and 1% P/S and 10 ng/ml interleukin 3 (IL3, Sigma-Aldrich). Hek293 and BEAS2B cells were grown as monolayers in DMEM supplemented with 10% FBS and 1% P/S. All cells were maintained and propagated in a humidified 5% CO2 incubator at 37° C.
(§2) To generate Ba/F3, BEAS2B, and Hek-293 cells engineered with lentivirus to express HER2 WT or HER2YVMA, the cells were transduced with lentiviruses at multiplicity of infection (MOI) of 1 or 10; transduced cells were selected and maintained with G418 ([…]) (Geneticin, Life Technologies, Carlsbad, CA). Ba/F3 engineered cells were subjected to gradual withdrawal of interleukin 3 (IL-3, Sigma-Aldrich). After selection, IL3 independent Ba/F3 HER2YVMA, and BEAS2B HER2YVMA cells were cloned by limiting dilution. Hek293 HER2YVMA cells were used as pool. HER2 and phospho HER2 levels were confirmed by flow cytometery and immunoassay (MSD, Meso-Scale Discovery, Rockville, Maryland).
Compound treatment of Ba/F3-HER2YVMA suspension cells was done as described with minor modifications. Cells were plated at 300000 cell/well in 96-well round bottom plates in RPMI supplemented with 2% FBS and immediately dosed with compounds serially diluted in media without serum for a final concentration of 1% FBS, 0.1% DMSO. Cells were incubate with compounds for 1.5 hr, and plates were spun at 1500 rpm for 5 mins to remove media without disturbing pellet. Cells were lysed as described above.
HER2 signaling was evaluated using phospho (Tyr1248)/total ErbB2 whole cell lysate MSD plates (Meso-Scale Discovery, Gaithersburg, MD). The phospho HER2 signal was normalized to total HER2 for each sample; results are reported as % DMSO control. The normalized data was fitted using a sigmoidal curve analysis program (Graph Pad Prism version 6) with variable Hill slope to determine EC50 values.
The HER2 signaling results are provided in Table 4, under columns titled “BT474-pHER2 EC50”, “N87-pHER2 EC50”, and “NCI-H1781-pHER2 EC50”. Hek293-HER2YVMA ins fall under the heading “HEKYVMA-pHER2 EC50”, Ba/F3 HER2YVMA fall under the heading “Ba/F3 YVMA-pHER2 EC50” and BEAS2B-HER2YVMA fall under the heading “BEAS2B YVMA-pHER2 EC50”.

The subject of the next assay is Ba/F3 parental cells. The assay is described as follows: Cellular proliferation in Ba/F3 parental (IL3-dependent) cells. The assay is classed as cell-based, murine. The following applies: Mus musculus, BaF3. As to the method: as §1
(§3) Cell proliferation in non-adherent cells was investigated in Ba/F3 parental (IL3-dependent) and in the two IL3 independent cell clones tranduced to express mutant HER2 protein containing the YVMA insertion (Ba/F3 HER2YVMA). Cells were plated in DMEM supplemented with 10% FBS, 1% P/S, and 10 ng/ml IL3 (for parental Ba/F3 only) in 96-well white clear-bottom tissue culture plates (Costar, Sigma-Aldrich) at a starting cell density of 7500 cells. An 8-point standard curve with varying cell densities (starting at 100,000 cells and serially diluting down 2-fold) was prepared for each cell line and read after plating. Compound solutions were prepared in serum free media, and cells were treated as described above for adherent cells. Cell viability was determined by CellTiter Glo (Promega, Madison, WI) after 72 h. The results were converted to cell numbers using a standard curve; growth inhibition (GI50 values) were determined by Graph Pad Prism.
(§4) The results of these experiments show the ability of compounds to inhibit cell growth in HER2 dependent cell lines and a control cell line (Ba/F3 parental) are depicted in Table 4 in the columns titled “G150 (nM)”. Ba/F3 parental results fall under the heading “Ba/F3 parental-G150”, and Ba/F3 HER2YVMA fall under the heading “Ba/F3 YVMA-G150”.

Another assay has as its system Ba/F3 HER2YVMA cells. Kind of assay: Cellular proliferation in Ba/F3 HER2YVMA cells. To be noted: Mus musculus, BaF3, read-out: Ba/F3 YVMA GI50. The assay is classed as cell-based, murine. As to the method: as §1, §2, §3, §4

Sequence of HER2YVMA (P04626 with tags, fused parts or gaps INS775YVMA): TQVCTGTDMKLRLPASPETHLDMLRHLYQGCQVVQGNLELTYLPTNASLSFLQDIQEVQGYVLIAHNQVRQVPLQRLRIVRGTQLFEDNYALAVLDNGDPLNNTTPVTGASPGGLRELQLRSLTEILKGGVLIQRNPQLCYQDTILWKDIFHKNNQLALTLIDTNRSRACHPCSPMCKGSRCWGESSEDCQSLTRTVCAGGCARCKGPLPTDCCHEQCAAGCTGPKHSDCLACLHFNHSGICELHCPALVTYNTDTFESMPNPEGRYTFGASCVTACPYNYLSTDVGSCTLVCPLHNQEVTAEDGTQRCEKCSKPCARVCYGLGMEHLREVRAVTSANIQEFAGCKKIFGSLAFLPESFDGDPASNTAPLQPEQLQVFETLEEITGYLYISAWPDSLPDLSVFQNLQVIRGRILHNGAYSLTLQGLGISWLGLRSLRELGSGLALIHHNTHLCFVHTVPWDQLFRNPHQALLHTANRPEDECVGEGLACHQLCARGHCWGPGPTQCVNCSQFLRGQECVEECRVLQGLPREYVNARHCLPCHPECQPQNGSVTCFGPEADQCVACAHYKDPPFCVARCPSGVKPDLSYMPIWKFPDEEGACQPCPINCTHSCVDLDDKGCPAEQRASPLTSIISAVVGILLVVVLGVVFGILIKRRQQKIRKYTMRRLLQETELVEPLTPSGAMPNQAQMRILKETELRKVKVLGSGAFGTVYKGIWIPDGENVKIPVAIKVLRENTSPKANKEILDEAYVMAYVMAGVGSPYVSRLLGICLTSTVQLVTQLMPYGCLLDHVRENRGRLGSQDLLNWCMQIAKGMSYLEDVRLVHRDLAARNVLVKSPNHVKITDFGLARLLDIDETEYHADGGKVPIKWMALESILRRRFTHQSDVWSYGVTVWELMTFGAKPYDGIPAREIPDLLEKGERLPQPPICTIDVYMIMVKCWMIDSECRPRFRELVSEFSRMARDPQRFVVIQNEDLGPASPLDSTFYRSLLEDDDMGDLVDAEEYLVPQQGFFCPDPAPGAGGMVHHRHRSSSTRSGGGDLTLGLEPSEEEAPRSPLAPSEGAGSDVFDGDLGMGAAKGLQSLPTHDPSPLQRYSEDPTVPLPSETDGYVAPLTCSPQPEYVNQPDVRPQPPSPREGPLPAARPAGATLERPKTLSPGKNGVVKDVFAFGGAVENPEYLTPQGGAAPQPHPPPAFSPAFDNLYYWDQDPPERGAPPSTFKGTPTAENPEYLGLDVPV

As for `CN(C)C/C=C/C(=O)N1CCc2c(sc3ncnc(Nc4ccc(Oc5ccc6ncnn6c5)c(Cl)c4)c23)C1` [Compound 5, (E)-1-(4-((4-([1,2,4]triazolo[1,5-a]pyridin-6-yloxy)-3-chlorophenyl)amino)-5,8-dihydropyrido[4′,3′:4,5]thieno[2,3-d]pyrimidin-7(6H)-yl)-4-(dimethylamino)but-2-en-1-one], the EC50 at HER2YVMA is under 0.1 µM.

Consider `Cc1ccc(Oc2ccc(Nc3ncnc4sc5c(c34)CCN(C(=O)/C=C/CN(C)C(C)(C)C)C5)cc2C)cn1` [Compound 33], for which the EC50 on HER2YVMA is under 0.1 µM. For the same compound, the GI50 is 1 to 10 µM with Ba/F3 parental cells and under 0.1 µM in the assay on Ba/F3 HER2YVMA cells.

On to `Cc1ccc(Oc2ccc(Nc3ncnc4sc5c(c34)CN(C(=O)/C=C/CN(C)C)C5)cc2C)cn1` [Compound 99, (E)-4-(dimethylamino)-1-(4-((3-methyl-4-((6-methylpyridin-3-yl)oxy)phenyl)amino)-5,7-dihydro-6H-pyrrolo[3′,4′:4,5]thieno[2,3-d]pyrimidin-6-yl)but-2-en-1-one], for which the GI50 in the assay with Ba/F3 parental cells was 1 to 10 µM; in the assay on Ba/F3 HER2YVMA cells, under 0.1 µM.

Regarding `Cc1ccc(Oc2ccc(Nc3ncnc4sc5c(c34)C(C)CN(C(=O)C=CCN(C)C)C5)cc2C)cn1` (single isomer, unassigned) [Compound 106], the figures for the GI50 in the assay with Ba/F3 parental cells and in the assay on Ba/F3 HER2YVMA cells were 1 to 10 µM and under 0.1 µM, respectively.

As to `Cc1ccc(Oc2ccc(Nc3ncnc4sc5c(c34)CCN(C(=O)/C=C/CN3CC4C(CO)C4C3)C5)cc2C)cn1` (stereo not shown) [Compound 34], the EC50 at HER2YVMA was under 0.1 µM. The GI50 was 1 to 10 µM in the assay on Ba/F3 parental cells and under 0.1 µM in the assay with Ba/F3 HER2YVMA cells.

Turning to `COc1ccc(Oc2ccc(Nc3ncnc4sc5c(c34)CCN(C(=O)/C=C/CN(C)C)C5)cc2C)cn1` [Compound 95, (E)-4-(Dimethylamino)-1-(4-((4-((6-methoxypyridin-3-yl)oxy)-3-methylphenyl)amino)-5,6-dihydropyrido[4′,3′:4,5]thieno[2,3-d]pyrimidin-7(8H)-yl)but-2-en-1-one], the GI50 with Ba/F3 parental cells is 1 to 10 µM; in the assay with Ba/F3 HER2YVMA cells it was under 0.1 µM.

These data come from patent US20240391931A1 (Bristol-Myers Squibb Company, priority 2021, published 2024).
